Reference: the supplement of paper PMC10307832

Key:
Test in all cases: relative viability (nuclei count vs DMSO), 5 days (fraction); higher = more cells survive
QS11 + Bortezomib = compound: C1CC2=C(C1)C=C(C=C2)OC3=NC(=C4C(=N3)N(C=N4)CC5=CC=C(C=C5)C6=CC=CC=C6)N[C@@H](CC7=CC=CC=C7)CO [QS11] + CC(C)C[C@H](NC(=O)[C@H](Cc1ccccc1)NC(=O)c1cnccn1)B(O)O [Bortezomib] (partner 0.002 µM)
Summary of the method: (§1)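 One day after seeding in 1536-well plates, lung cancer cell lines were dosed by pin tool. Dosing was either single-drug or a fixed anchor-drug dose plus five library-drug doses (not always all listed) in √10 steps. After 5 days, nuclei were stained in one fix-and-stain step and counted on 4× images, and relative viability is the nuclei count of treated wells over that of vehicle wells, given as the median of duplicate plates.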

AZ628 + Pemetrexed = compound: CC1=C(C=C(C=C1)NC(=O)C2=CC(=CC=C2)C(C)(C)C#N)NC3=CC4=C(C=C3)N=CN(C4=O)C [AZ628] + Nc1nc2[nH]cc(CCc3ccc(C(=O)N[C@@H](CCC(=O)O)C(=O)O)cc3)c2c(=O)[nH]1 [Pemetrexed] (partner 0.2 µM)
Summary of the method: as §1

[1] = compound: C[As](C)SC[C@H](NC(=O)CC[C@H](N)C(=O)O)C(=O)NCC(=O)O [Darinaparsin] + C[C@@H](Oc1cc(-c2cnn(C3CCNCC3)c2)cnc1N)c1c(Cl)ccc(F)c1Cl [Crizotinib] (partner 1 µM)
Summary of the method: as §1

[2] = compound: C[As](C)SC[C@H](NC(=O)CC[C@H](N)C(=O)O)C(=O)NCC(=O)O [Darinaparsin] + C[C@]1(O)C[C@@H](c2nc(-c3ccc4ccc(-c5ccccc5)nc4c3)c3c(N)nccn32)C1 [Linsitinib] (partner 1 µM)
Summary of the method: as §1

Question: With LCLC-97TM1 as the cell line, how does the relative viability (QS11 + Bortezomib; first compound 0.253 µM) read?
Answer: 0.971

Question: And the relative viability (QS11 + Bortezomib; first compound 0.8 µM)?
Answer: 0.611

Question: What about the relative viability (QS11 + Bortezomib; first compound 2.53 µM) of the same cell line?
Answer: 0.537

Question: And the relative viability (QS11 + Bortezomib; first compound 8 µM)?
Answer: 1.18

Question: What about the relative viability (AZ628 + Pemetrexed; first compound 0.08 µM) of the same cell line?
Answer: 0.246

Question: What about the relative viability (AZ628 + Pemetrexed; first compound 0.253 µM) of the same cell line?
Answer: 0.255

Question: What about the relative viability (AZ628 + Pemetrexed; first compound 0.8 µM) of the same cell line?
Answer: 0.238

Question: And the relative viability (AZ628 + Pemetrexed; first compound 2.53 µM)?
Answer: 0.229

Question: And the relative viability (AZ628 + Pemetrexed; first compound 8 µM)?
Answer: 0.121

Question: And the relative viability ([1]; first compound 0.08 µM)?
Answer: 0.517

Question: And the relative viability ([1]; first compound 0.8 µM)?
Answer: 0.354

Question: What about the relative viability ([1]; first compound 2.53 µM) of the same cell line?
Answer: 0.271

Question: What about the relative viability ([1]; first compound 8 µM) of the same cell line?
Answer: 0.372

Question: What about the relative viability ([2]; first compound 0.08 µM) of the same cell line?
Answer: 0.162

Question: What about the relative viability ([2]; first compound 0.8 µM) of the same cell line?
Answer: 0.164

Question: What about the relative viability ([2]; first compound 2.53 µM) of the same cell line?
Answer: 0.173

Question: And the relative viability ([2]; first compound 8 µM)?
Answer: 0.178
